Reference: paper PMC4232510, “Identification of Functionally Important Residues of the Rat P2X4 Receptor by Alanine Scanning Mutagenesis of the Dorsal Fin and Left Flipper Domains” (PLoS ONE, 2014)
Positions count from the first letter of the chain named.

Assays:
rP2X4R S289A mutant = molecular target: T1, rP2X4R S289A mutant (Rattus norvegicus, UniProt P51577, S289A); experiment: whole-cell patch clamp, HEK293T cells expressing mutant; format: cell-based
T1 construct: expressed in transfected cells; host or cells: HEK293T
T1 sequence (P51577 1-388 S289A): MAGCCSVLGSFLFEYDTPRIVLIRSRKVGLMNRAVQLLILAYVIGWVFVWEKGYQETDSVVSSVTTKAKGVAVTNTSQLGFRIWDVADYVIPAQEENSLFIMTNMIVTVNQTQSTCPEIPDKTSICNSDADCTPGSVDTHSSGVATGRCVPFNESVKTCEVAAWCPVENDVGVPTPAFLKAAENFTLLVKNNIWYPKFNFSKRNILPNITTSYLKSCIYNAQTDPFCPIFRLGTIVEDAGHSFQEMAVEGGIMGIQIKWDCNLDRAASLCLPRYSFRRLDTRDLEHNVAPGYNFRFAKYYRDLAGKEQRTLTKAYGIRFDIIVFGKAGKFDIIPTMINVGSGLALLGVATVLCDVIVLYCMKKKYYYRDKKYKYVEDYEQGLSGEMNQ

rP2X4R D283A mutant = molecular target: T2, rP2X4R D283A mutant (Rattus norvegicus, UniProt P51577, D283A); experiment: as above; format: cell-based
T2 construct: expressed in transfected cells; host or cells: HEK293T
T2 sequence (P51577 1-388 D283A): T1 sequence (P51577 1-388 S289A) with D283A, A289S

[1] = 100 µM ATP 60 s, biexponential fit
[2] = contribution of τdes2, 100 µM ATP 60 s
[3] = decay after removal of 1 or 3 µM ATP, 3 µM IVM
[4] = naïve receptors, 2–5 s application
[5] = 3 µM IVM 4-6 min vs IVM-untreated

Compound | τdes1 (rP2X4R S289A mutant; [1]) | τdes2 (rP2X4R S289A mutant; [1]) | Imax (rP2X4R S289A mutant; 100–1000 µM ATP) | Imax+IVM (rP2X4R S289A mutant; ATP after 3 µM IVM 4-6 min) | A2 /(A1+A2) (rP2X4R S289A mutant; [2]) | τoff +IVM (rP2X4R S289A mutant; [3]) | EC50 (rP2X4R S289A mutant; [4]) | τdes (rP2X4R S289A mutant; weighted, 100 µM ATP 60 s) | τdes1 (rP2X4R D283A mutant; [1]) | τdes2 (rP2X4R D283A mutant; [1]) | Imax (rP2X4R D283A mutant; 100–1000 µM ATP) | Imax+IVM (rP2X4R D283A mutant; ATP after 3 µM IVM 4-6 min) | A2 /(A1+A2) (rP2X4R D283A mutant; [2]) | τoff +IVM (rP2X4R D283A mutant; [3]) | EC50 (rP2X4R D283A mutant; [4]) | τdes (rP2X4R D283A mutant; weighted, 100 µM ATP 60 s) | Fold incr. Imax (rP2X4R S289A mutant; [5]) | Fold incr. Imax (rP2X4R D283A mutant; [5])
Nc1ncnc2c1ncn2[C@@H]1O[C@H](COP(=O)(O)OP(=O)(O)OP(=O)(O)O)[C@@H](O)[C@H]1O [ATP] | 0.9 ± 0.3 s | 11.3 ± 0.6 s | 1.4 ± 0.2 nA | 4.5 ± 1.1 nA | 56 ± 7% | 15 ± 1.1 s | 3.6 ± 1.9 µM | 6.8 ± 1.0 s | 2.2 ± 0.6 s | 17.1 ± 5.8 s | 2.2 ± 0.3 nA | 3.1 ± 0.3 nA | 59 ± 10% | 16 ± 1.7 s | 7.3 ± 3.4 µM | 9.1 ± 1.5 s | – | –
CC[C@H](C)[C@H]1O[C@]2(CC[C@@H]1C)C[C@@H]1C[C@@H](C/C=C(\C)[C@@H](O[C@H]3C[C@H](OC)[C@@H](O[C@H]4C[C@H](OC)[C@@H](O)[C@H](C)O4)[C@H](C)O3)[C@@H](C)/C=C/C=C3\CO[C@@H]4[C@H](O)C(C)=C[C@@H](C(=O)O1)[C@]34O)O2 [IVM, ivermectin] | – | – | – | – | – | – | – | – | – | – | – | – | – | – | – | – | 3.2 ± 0.2 fold | 1.4 ± 0.1 fold
